Measured values: ChEMBL document CHEMBL1142822, “Analysis of structure-activity relationships for the 'A-region' of N-(4-t-butylbenzyl)-N'-[4-(methylsulfonylamino)benzyl]thiourea analogues as TRPV1 antagonists” (Bioorg Med Chem Lett, 2005)

The compounds below were run against T1, Transient receptor potential cation channel subfamily V member 1 (Rattus norvegicus, UniProt O35433) (assay: Antagonist activity for rat TRPV1 expressed in CHO cells). Conditions: not given; call rule not given here.
Format: functional, cell-based

T1 sequence (O35433 whole entry): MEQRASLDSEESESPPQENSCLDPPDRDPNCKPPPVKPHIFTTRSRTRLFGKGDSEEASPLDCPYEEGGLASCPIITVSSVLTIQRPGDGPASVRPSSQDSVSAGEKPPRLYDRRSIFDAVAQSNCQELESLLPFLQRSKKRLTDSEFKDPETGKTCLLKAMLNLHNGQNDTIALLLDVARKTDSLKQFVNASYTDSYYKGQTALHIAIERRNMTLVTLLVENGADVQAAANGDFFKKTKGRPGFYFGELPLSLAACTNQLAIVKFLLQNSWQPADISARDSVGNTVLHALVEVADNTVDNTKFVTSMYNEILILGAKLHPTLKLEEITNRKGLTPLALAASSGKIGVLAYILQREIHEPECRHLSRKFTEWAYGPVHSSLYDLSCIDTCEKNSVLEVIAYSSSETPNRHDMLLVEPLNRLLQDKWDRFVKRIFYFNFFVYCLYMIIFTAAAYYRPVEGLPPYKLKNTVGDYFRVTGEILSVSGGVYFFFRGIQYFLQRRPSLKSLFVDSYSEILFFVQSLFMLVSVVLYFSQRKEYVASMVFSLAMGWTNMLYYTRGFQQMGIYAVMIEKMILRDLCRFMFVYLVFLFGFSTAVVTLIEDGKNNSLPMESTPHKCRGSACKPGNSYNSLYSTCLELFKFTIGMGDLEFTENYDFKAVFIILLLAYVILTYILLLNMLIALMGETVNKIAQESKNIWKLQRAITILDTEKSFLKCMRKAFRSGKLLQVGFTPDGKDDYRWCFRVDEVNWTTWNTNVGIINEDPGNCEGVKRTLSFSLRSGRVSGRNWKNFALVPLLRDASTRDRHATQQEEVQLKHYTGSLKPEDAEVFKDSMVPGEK

| SMILES | Ki |
| --- | --- |
| CC(C)(C)c1ccc(C/N=C(\S)NCc2ccc(NS(=O)(=O)CCN=[N+]=[N-])cc2)cc1 | 231 nM |
| CC(C)(C)c1ccc(C/N=C(\S)NCCc2ccc(NS(C)(=O)=O)cc2)cc1 | 699 nM |
| CC(C)(C)c1ccc(C/N=C(\S)NCc2ccc(NS(C)(=O)=O)cn2)cc1 | 4100 nM |
| CC(C)(C)c1ccc(C/N=C(\S)NCc2ccc(NS(C)(=O)=O)c([N+](=O)[O-])c2)cc1 | 610 nM |
| CC(C)(C)c1ccc(C/N=C(\S)Nc2ccc(NS(C)(=O)=O)cc2)cc1 | 6800 nM |
| CC(C)(C)c1ccc(C/N=C(\S)NCc2ccc(NS(C)(=O)=O)cc2Cl)cc1 | 45.5 nM |
| CC(C)Oc1cc(C/N=C(\S)NCc2ccc(C(C)(C)C)cc2)ccc1NS(C)(=O)=O | 3600 nM |
| CC(C)(C)c1ccc(C/N=C(\S)NCc2ccc(NS(C)(=O)=O)c(Cl)c2)cc1 | 400 nM |
| CC(C)(C)c1ccc(C/N=C(\S)NCc2ccc(NS(C)(=O)=O)cc2F)cc1 | 27.3 nM |
| CC(C)(C)c1ccc(C/N=C(\S)NCc2ccc(NS(C)(=O)=O)cc2C(F)(F)F)cc1 | 119 nM |
| CC(C)(C)c1ccc(C/N=C(\S)NCc2ccc(NS(C)(=O)=O)nc2)cc1 | 177 nM |

The compounds below were run against T1, Transient receptor potential cation channel subfamily V member 1 (assay: In vitro binding affinity for rat TRPV1 expressed in CHO cells using [3H]RTX; Not effective). Conditions: not given.
Format: cell-based

| SMILES | Ki |
| --- | --- |
| CC(C)(C)c1ccc(C/N=C(\S)NCc2ccc(NS(C)(=O)=O)c(S(C)(=O)=O)c2)cc1 | Not Active |
| CC(C)(C)c1ccc(C/N=C(\S)NCc2cnc(NS(C)(=O)=O)cn2)cc1 | Not Active |

These compounds were tested against T1, Transient receptor potential cation channel subfamily V member 1 (assay: Agonist activity by [Ca2+] uptake in CHO cells expressing rat TRPV1 at 10-30 uM; WE = Weakly effective). Conditions: not given.
Format: functional, cell-based

| SMILES | EC50 |
| --- | --- |
| CC(C)(C)c1ccc(C/N=C(\S)NCc2ccc(NS(N)(=O)=O)cc2)cc1 | Partial agonist |
| CC(C)(C)c1ccc(C/N=C(\S)NCc2ccc(NS(C)(=O)=O)c(O)c2)cc1 | Partial agonist |
| CC(C)(C)c1ccc(C/N=C(\S)Nc2ccc(NS(C)(=O)=O)cc2)cc1 | Partial agonist |

Each compound was assayed against T1, Transient receptor potential cation channel subfamily V member 1 (assay: Agonist activity by [Ca2+] uptake in CHO cells expressing rat TRPV1 at 10-30 uM; NE = Not effective). Conditions: cho.
Format: functional, cell-based

| SMILES | EC50 |
| --- | --- |
| CC(C)(C)c1ccc(C/N=C(\S)NCc2ccc(NS(C)(=O)=O)cn2)cc1 | Not Active |
| CC(C)(C)c1ccc(C/N=C(\S)NCc2ccc(NS(C)(=O)=O)c(S(C)(=O)=O)c2)cc1 | Not Active |
| CC(C)(C)c1ccc(C/N=C(\S)NCc2ccc(NS(C)(=O)=O)c([N+](=O)[O-])c2)cc1 | Not Active |
| CC(C)(C)c1ccc(C/N=C(\S)NCc2ccc(NS(C)(=O)=O)cc2Cl)cc1 | Not Active |
| CC(C)Oc1cc(C/N=C(\S)NCc2ccc(C(C)(C)C)cc2)ccc1NS(C)(=O)=O | Not Active |
| CC(C)(C)c1ccc(CNC(=S)NCc2ccc(NS(C)(=O)=O)cc2)cc1 | Not Active |
| CC(C)(C)c1ccc(C/N=C(\S)NCc2ccc(NS(C)(=O)=O)cc2F)cc1 | Not Active |
| CC(C)(C)c1ccc(C/N=C(\S)NCc2ccc(NS(C)(=O)=O)cc2C(F)(F)F)cc1 | Not Active |
| CC(C)(C)c1ccc(C/N=C(\S)NCc2ccc(NS(=O)(=O)CCN)cc2)cc1 | Not Active |
| CC(C)(C)c1ccc(C/N=C(\S)NCc2cnc(NS(C)(=O)=O)cn2)cc1 | Not Active |
| CC(C)(C)c1ccc(CNC(=S)NCc2ccc(NS(C)(=O)=O)c(F)c2)cc1 | Not Active |
| CC(C)(C)c1ccc(C/N=C(\S)NCc2ccc(NS(C)(=O)=O)nc2)cc1 | Not Active |
| Oc1cc2c(cc1O)CN(C(=S)NCCc1ccc(Cl)cc1)CCC2 [CAPSAZEPINE] | Not Active |

Same assay, conditions: read-out: EC50

| SMILES | EC50 |
| --- | --- |
| CC(C)(C)c1ccc(C/N=C(\S)NCc2cccc(NS(C)(=O)=O)c2)cc1 | 4100 nM |
| C[S+]([O-])c1cccc(C/N=C(\S)NCc2ccc(C(C)(C)C)cc2)c1 (stereo not drawn) | 1890 nM |

What follows are compounds tested against T1, Transient receptor potential cation channel subfamily V member 1 (assay: Agonist activity by [Ca2+] uptake in CHO cells expressing rat TRPV1 at 10-30 uM). Conditions: not given.
Format: functional, cell-based

| SMILES | EC50 |
| --- | --- |
| CC(C)(C)c1ccc(C/N=C(\S)NCc2ccc(CNS(C)(=O)=O)cc2)cc1 | 1720 nM |
| C=CS(=O)(=O)Nc1ccc(CN/C(S)=N/Cc2ccc(C(C)(C)C)cc2)cc1 | 250 nM |

What follows are compounds tested against T1, Transient receptor potential cation channel subfamily V member 1 (assay: Agonist activity by 300 nM capsaicin induced [Ca2+] uptake in CHO cells expressing rat TRPV1 at 10-30 uM; NE = Not effective). Conditions: not given.
Format: functional, cell-based

| SMILES | EC50 |
| --- | --- |
| CC(C)(C)c1ccc(C/N=C(\S)NCc2ccc(NS(=O)(=O)CCN=[N+]=[N-])cc2)cc1 | Not Active |
| CC(C)(C)c1ccc(C/N=C(\S)NCc2ccc(NS(C)(=O)=O)c(Cl)c2)cc1 | Not Active |

The compounds below were run against T1, Transient receptor potential cation channel subfamily V member 1 (assay: Agonist activity by 300 nM capsaicin induced [Ca2+] uptake in CHO cells expressing rat TRPV1 at 10-30 uM; WE = Weakly effective). Conditions: cho.
Format: functional, cell-based

| SMILES | EC50 |
| --- | --- |
| CC(C)(C)c1ccc(C/N=C(\S)NCCc2ccc(NS(C)(=O)=O)cc2)cc1 | Partial agonist |
| CSc1cccc(C/N=C(\S)NCc2ccc(C(C)(C)C)cc2)c1 | Partial agonist |
| COc1cc(CNC(=S)NCc2ccc(C(C)(C)C)cc2)ccc1NS(C)(=O)=O | Partial agonist |

Same assay, conditions: read-out: EC50

| SMILES | EC50 |
| --- | --- |
| CC(C)(C)c1ccc(C/N=C(\S)NCc2cccc(S(C)(=O)=O)c2)cc1 | 1010 nM |

Each compound was assayed against T1, Transient receptor potential cation channel subfamily V member 1 (assay: Antagonist activity for rat TRPV1 expressed in CHO cells; Weakly effective). Conditions: not given.
Format: functional, cell-based

| SMILES | Ki |
| --- | --- |
| CC(C)(C)c1ccc(C/N=C(\S)NCc2ccc(NS(N)(=O)=O)cc2)cc1 | Partial antagonist |
| CC(C)(C)c1ccc(C/N=C(\S)NCc2ccc(NS(C)(=O)=O)c(O)c2)cc1 | Partial antagonist |
| CC(C)(C)c1ccc(C/N=C(\S)NCc2ccc(NS(=O)(=O)CCN)cc2)cc1 | Partial antagonist |

The compounds below were run against T1, Transient receptor potential cation channel subfamily V member 1 (assay: In vitro binding affinity for rat TRPV1 expressed in CHO cells using [3H]-RTX). Conditions: not given.
Format: cell-based

| SMILES | Ki |
| --- | --- |
| CC(C)(C)c1ccc(C/N=C(\S)NCc2ccc(NS(N)(=O)=O)cc2)cc1 | 650 nM |
| CC(C)(C)c1ccc(C/N=C(\S)NCc2ccc(NS(=O)(=O)CCN=[N+]=[N-])cc2)cc1 | 145 nM |
| CC(C)(C)c1ccc(C/N=C(\S)NCCc2ccc(NS(C)(=O)=O)cc2)cc1 | 3900 nM |
| CC(C)(C)c1ccc(C/N=C(\S)NCc2ccc(NS(C)(=O)=O)c(O)c2)cc1 | 750 nM |
| CSc1cccc(C/N=C(\S)NCc2ccc(C(C)(C)C)cc2)c1 | 580 nM |
| CC(C)(C)c1ccc(C/N=C(\S)NCc2ccc(NS(C)(=O)=O)c([N+](=O)[O-])c2)cc1 | 1300 nM |
| CC(C)(C)c1ccc(C/N=C(\S)NCc2cccc(NS(C)(=O)=O)c2)cc1 | 6000 nM |
| CC(C)(C)c1ccc(C/N=C(\S)Nc2ccc(NS(C)(=O)=O)cc2)cc1 | 9560 nM |
| CC(C)(C)c1ccc(C/N=C(\S)NCc2ccc(NS(C)(=O)=O)cc2Cl)cc1 | 144 nM |
| CC(C)Oc1cc(C/N=C(\S)NCc2ccc(C(C)(C)C)cc2)ccc1NS(C)(=O)=O | 8070 nM |
| CC(C)(C)c1ccc(C/N=C(\S)NCc2ccc(NS(C)(=O)=O)c(Cl)c2)cc1 | 1160 nM |
| CC(C)(C)c1ccc(C/N=C(\S)NCc2ccc(NS(C)(=O)=O)cc2F)cc1 | 215 nM |
| CC(C)(C)c1ccc(C/N=C(\S)NCc2cccc(S(C)(=O)=O)c2)cc1 | 1000 nM |
| CC(C)(C)c1ccc(C/N=C(\S)NCc2ccc(NS(C)(=O)=O)cc2C(F)(F)F)cc1 | 440 nM |
| CC(C)(C)c1ccc(C/N=C(\S)NCc2ccc(NS(=O)(=O)CCN)cc2)cc1 | 4640 nM |
| C[S+]([O-])c1cccc(C/N=C(\S)NCc2ccc(C(C)(C)C)cc2)c1 (stereo not drawn) | 3600 nM |
| CC(C)(C)c1ccc(C/N=C(\S)NCc2ccc(NS(C)(=O)=O)nc2)cc1 | 4100 nM |
| C=CS(=O)(=O)Nc1ccc(CN/C(S)=N/Cc2ccc(C(C)(C)C)cc2)cc1 | 231 nM |

The compounds below were run against T1, Transient receptor potential cation channel subfamily V member 1 (assay: Antagonist activity for rat TRPV1 expressed in CHO cells; Not effective). Conditions: not given.
Format: functional, cell-based

| SMILES | Ki |
| --- | --- |
| CSc1cccc(C/N=C(\S)NCc2ccc(C(C)(C)C)cc2)c1 | Not Active |
| CC(C)(C)c1ccc(C/N=C(\S)NCc2ccc(CNS(C)(=O)=O)cc2)cc1 | Not Active |
| CC(C)(C)c1ccc(C/N=C(\S)NCc2ccc(NS(C)(=O)=O)c(S(C)(=O)=O)c2)cc1 | Not Active |
| CC(C)(C)c1ccc(C/N=C(\S)NCc2cccc(NS(C)(=O)=O)c2)cc1 | Not Active |
| CC(C)(C)c1ccc(C/N=C(\S)NCc2cccc(S(C)(=O)=O)c2)cc1 | Not Active |
| CC(C)(C)c1ccc(C/N=C(\S)NCc2cnc(NS(C)(=O)=O)cn2)cc1 | Not Active |
| C[S+]([O-])c1cccc(C/N=C(\S)NCc2ccc(C(C)(C)C)cc2)c1 (stereo not drawn) | Not Active |
| C=CS(=O)(=O)Nc1ccc(CN/C(S)=N/Cc2ccc(C(C)(C)C)cc2)cc1 | Not Active |
